Calls of active or inactive are those of the source. The rule behind the calls is not given here.
Tests used:
[1] = test system: HepG2; assay: Cytotoxicity against human HepG2 cells assessed as inhibition of cell proliferation after 48 hrs by MTT assay; type: functional, cell-based; conditions: HepG2, 48 h
[2] = Cytotoxicity against human HCT116 cells assessed as inhibition of cell proliferation after 48 hrs by MTT assay; type: functional, cell-based; conditions: HCT-116, 48 h
[3] = test system: HepG2; assay: Cytotoxicity against human HepG2 cells assessed as inhibition of cell proliferation at 0.5 to 50 uM after 48 hrs in presence of dipyridamole by MTT assay; type: functional, cell-based
[4] = test system: HepG2; assay: Induction of apoptosis in human HepG2 cells at 2 uM incubated for 48 hrs by FITC-Annexin V/PI staining-based flow cytometric analysis; type: functional
[5] = test system: HepG2; assay: Induction of NO production in human HepG2 cells at 100 uM incubated for 24 hrs by Griess assay; type: functional, cell-based
[6] = test system: SW-620; assay: Induction of nitrite/nitrate production in human SW620 cells at 100 uM incubated for 24 hrs by Griess assay; type: functional, cell-based
[7] = test system: A549; assay: Cytotoxicity against human A549 cells assessed as inhibition of cell proliferation after 48 hrs by MTT assay; type: functional, cell-based; conditions: A549, 48 h
[8] = Cytotoxicity against human SW620 cells assessed as inhibition of cell proliferation after 48 hrs by MTT assay; type: functional, cell-based; conditions: SW-620, 48 h
[9] = test system: HepG2; assay: Induction of apoptosis in human HepG2 cells assessed as reduction in PARP-1 protein level at 2 uM incubated for 48 hrs by Western blot analysis; type: functional, cell-based
[10] = test system: HCT-116; assay: Induction of NO production in human HCT116 cells at 100 uM incubated for 24 hrs by Griess assay; type: functional, cell-based
[11] = Cytotoxicity against human SGC7901 cells assessed as inhibition of cell proliferation after 48 hrs by MTT assay; type: functional, cell-based; conditions: SGC-7901, 48 h
[12] = test system: HCT-116; assay: Induction of nitric oxide release in human HCT116 cells at 6 uM incubated for 24 hrs by DAF-FM DA staining-based flow cytometric analysis; type: functional, cell-based
[13] = test system: HepG2; assay: Induction of nitric oxide release in human HepG2 cells at 6 uM incubated for 24 hrs by DAF-FM DA staining-based flow cytometric analysis; type: functional, cell-based
[14] = test system: SW-620; assay: Induction of nitric oxide release in human SW620 cells at 6 uM incubated for 24 hrs by DAF-FM DA staining-based flow cytometric analysis; type: functional, cell-based
[15] = Cytotoxicity against human LO2 cells assessed as inhibition of cell proliferation after 48 hrs by MTT assay; type: cell-based; conditions: l02, 48 h
[16] = test system: HepG2; assay: Induction of nitric oxide release in human HepG2 cells incubated for 24 hrs by DAF-FM DA staining-based flow cytometric analysis; type: functional, cell-based
[17] = test system: HepG2; assay: Cytotoxicity against human HepG2 cells assessed as inhibition of cell proliferation at 2 to 4 uM after 48 hrs in presence of haemoglobin; type: functional, cell-based
[18] = test system: HepG2; assay: Induction of apoptosis in human HepG2 cells assessed as reduction in Bcl-2 protein level incubated for 48 hrs by Western blot analysis; type: functional, cell-based
[19] = test system: HepG2; assay: Induction of apoptosis in human HepG2 cells assessed as increase in activated caspase-3 protein level at 0.5 to 2 uM incubated for 48 hrs by Western blot analysis; type: functional, cell-based
[20] = test system: HepG2; assay: Induction of apoptosis in human HepG2 cells assessed as reduction in PARP-1 protein level at 0.5 to 2 uM incubated for 48 hrs by Western blot analysis; type: functional, cell-based
[21] = test system: HepG2; assay: Induction of apoptosis in human HepG2 cells incubated for 48 hrs by FITC-Annexin V/PI staining-based flow cytometric analysis; type: functional, cell-based
[22] = test system: HepG2; assay: Induction of apoptosis in human HepG2 cells assessed as increase in Bax protein level incubated for 48 hrs by Western blot analysis; type: functional, cell-based
[23] = test system: SW-620; assay: Induction of nitric oxide release in human SW620 cells incubated for 24 hrs by DAF-FM DA staining-based flow cytometric analysis; type: functional, cell-based
[24] = test system: HCT-116; assay: Induction of nitric oxide release in human HCT116 cells incubated for 24 hrs by DAF-FM DA staining-based flow cytometric analysis; type: functional, cell-based

SMILES	IC50 [1]	IC50 [2]	Activity [5]	Activity [6]	IC50 [7]	IC50 [8]	Activity [10]	IC50 [11]	other results
Nc1ccn([C@@H]2O[C@H](CO)[C@@H](O)C2(F)F)c(=O)n1 [GEMCITABINE]	2.97 µM	7.33 µM	inactive	inactive	2.69 µM	5.62 µM	inactive	3.58 µM	Activity [3]: inactive; Activity [4]: Active; Activity [9]: Active
O=C(CCC(=O)Oc1ccc(CCOc2no[n+]([O-])c2S(=O)(=O)c2ccccc2)cc1)Nc1ccn([C@@H]2O[C@H](CO)[C@@H](O)C2(F)F)c(=O)n1	9.21 µM	8.78 µM			> 12.5 µM	> 12.5 µM		> 12.5 µM	
O=C(CCC(=O)Nc1ccn([C@@H]2O[C@H](CO)[C@@H](O)C2(F)F)c(=O)n1)NCCCOc1no[n+]([O-])c1S(=O)(=O)c1ccccc1	6.18 µM	4.1 µM	Active	Active	8.9 µM	4.97 µM	Active	6.71 µM	
O=C(CCC(=O)OCCCCOc1no[n+]([O-])c1S(=O)(=O)c1ccccc1)Nc1ccn([C@@H]2O[C@H](CO)[C@@H](O)C2(F)F)c(=O)n1	2.44 µM	3.57 µM	Active	Active	5.18 µM	2.49 µM	Active	6.13 µM	
O=C(CCC(=O)Nc1ccn([C@@H]2O[C@H](CO)[C@@H](O)C2(F)F)c(=O)n1)NCCCCCOc1no[n+]([O-])c1S(=O)(=O)c1ccccc1	10.7 µM	> 12.5 µM			> 12.5 µM	> 12.5 µM		11.8 µM	
CCOC(=O)N1CCN(/[N+]([O-])=N/Oc2ccc([N+](=O)[O-])cc2[N+](=O)[O-])CC1	7.42 µM	3.75 µM				5.16 µM			Activity [12]: Active; Activity [13]: Active; Activity [14]: Active
O=C(CCC(=O)OCCCOc1no[n+]([O-])c1S(=O)(=O)c1ccccc1)Nc1ccn([C@@H]2O[C@H](CO)[C@@H](O)C2(F)F)c(=O)n1	5.32 µM	6.89 µM	Active	Active	9.92 µM	5 µM	Active	9.26 µM	
O=C(CCC(=O)OCCCCCOc1no[n+]([O-])c1S(=O)(=O)c1ccccc1)Nc1ccn([C@@H]2O[C@H](CO)[C@@H](O)C2(F)F)c(=O)n1	> 12.5 µM	11.3 µM			> 12.5 µM	9.67 µM		10.5 µM	
O=C(O)CCC(=O)OCC#CCOc1no[n+]([O-])c1S(=O)(=O)c1ccccc1	8.73 µM	9.86 µM			> 12.5 µM	9.09 µM		11.5 µM	
O=C(CCC(=O)OCCOCCOc1no[n+]([O-])c1S(=O)(=O)c1ccccc1)Nc1ccn([C@@H]2O[C@H](CO)[C@@H](O)C2(F)F)c(=O)n1	7.05 µM	7.86 µM			11.5 µM	> 12.5 µM		10.7 µM	
O=C(CCC(=O)OCCOc1no[n+]([O-])c1S(=O)(=O)c1ccccc1)Nc1ccn([C@@H]2O[C@H](CO)[C@@H](O)C2(F)F)c(=O)n1	> 12.5 µM	10.3 µM			> 12.5 µM	> 12.5 µM		> 12.5 µM	
CN(CCOc1no[n+]([O-])c1S(=O)(=O)c1ccccc1)C(=O)CCC(=O)Nc1ccn([C@@H]2O[C@H](CO)[C@@H](O)C2(F)F)c(=O)n1	8.39 µM	10.8 µM			10.1 µM	5.21 µM		5.85 µM	
O=C(CCC(=O)Nc1ccn([C@@H]2O[C@H](CO)[C@@H](O)C2(F)F)c(=O)n1)NCCOc1no[n+]([O-])c1S(=O)(=O)c1ccccc1	10.5 µM	> 12.5 µM			> 12.5 µM	9.16 µM		9.92 µM	
O=C(CCC(=O)OCC#CCOc1no[n+]([O-])c1S(=O)(=O)c1ccccc1)Nc1ccn([C@@H]2O[C@H](CO)[C@@H](O)C2(F)F)c(=O)n1	1.02 µM	1.19 µM	Active	Active	3.27 µM	1.3 µM	Active	1.36 µM	Activity [15]: Non-toxic; Activity [16]: Dose-dependent effect; Activity [17]: inactive; Activity [3]: Active; Activity [4]: 78.3%; Activity [18]: Dose-dependent effect; Activity [19]: Active; Activity [20]: Active; Activity [21]: Active; Activity [9]: Active; Activity [22]: Dose-dependent effect; Activity [23]: Dose-dependent effect; Activity [24]: Dose-dependent effect
O=C(CCC(=O)Nc1ccn([C@@H]2O[C@H](CO)[C@@H](O)C2(F)F)c(=O)n1)NCCCCOc1no[n+]([O-])c1S(=O)(=O)c1ccccc1	3.22 µM	3.06 µM	Active	Active	6.04 µM	4.35 µM	Active	5.1 µM	
CC(CCOC(=O)CCC(=O)Nc1ccn([C@@H]2O[C@H](CO)[C@@H](O)C2(F)F)c(=O)n1)Oc1no[n+]([O-])c1S(=O)(=O)c1ccccc1 (stereo partly drawn)	3.25 µM	4.69 µM	Active	Active	7.82 µM	3.98 µM	Active	7.44 µM	

Reference: ChEMBL document CHEMBL3739329, “Synthesis and biological evaluation of nitric oxide-releasing hybrids from gemcitabine and phenylsulfonyl furoxans as anti-tumor agents” (Medchemcomm, 2015)
